Data taken from US4755513A, “Antimicrobial 1-substituted phenyl-4-oxoquinoline-3-carboxylic acid compounds” (Otsuka Pharmaceutical Company, Limited, priority 1985, dated 1988).
Like-named read-outs stand apart in the source and are kept apart here.

Assays:
[1] = tested on: Pseudomonas aeruginosa E-2; test: MIC by serial dilution method on agar plate; assay type: cell-based
Text: (§1) Chemotherapy, 22, 1126-1128 (1974)]. The microorganisms were used in a concentration of 1×10^8 cells/ml (O.D. 660 mμ, 0.07-0.16) and 1×10^6 cells/ml (100 folds dilution).

[2] = tested on: Escherichia coli No. 29; test: MIC by serial dilution method on agar plate; assay type: cell-based
Text: as §1

[3] = tested on: Serratia marcescens IFO 12648; test: MIC by serial dilution method on agar plate; assay type: cell-based
Text: as §1

[4] = tested on: Bacillus subtilis ATCC 6633; test: MIC by serial dilution method on agar plate; assay type: cell-based
Text: as §1

[5] = tested on: Acinetobacter calcoaceticus AC-54; test: MIC by serial dilution method on agar plate; assay type: cell-based
Text: as §1

[6] = tested on: Pseudomonas aeruginosa ATCC 10145; test: MIC by serial dilution method on agar plate; assay type: cell-based
Text: as §1

[7] = tested on: Proteus morganii IID Kono; test: MIC by serial dilution method on agar plate; assay type: cell-based
Text: as §1

[8] = tested on: Escherichia coli NIHJ JC-2; test: MIC by serial dilution method on agar plate; assay type: cell-based
Text: as §1

[9] = tested on: Klebsiella pneumoniae NCTC 9632; test: MIC by serial dilution method on agar plate; assay type: cell-based
Text: as §1

[10] = tested on: Proteus inconstans IFO 12930; test: MIC by serial dilution method on agar plate; assay type: cell-based
Text: as §1

[11] = tested on: Streptococcus faecalis IFO 12580; test: MIC by serial dilution method on agar plate; assay type: cell-based
Text: as §1

[12] = tested on: Staphylococcus aureus FDA 209P; test: MIC by serial dilution method on agar plate; assay type: cell-based
Text: (§2) The microorganisms were used in a concentration of 1×10^8 cells/ml (O.D. 660 mμ, 0.07-0.16) and 1×10^6 cells/ml (100 folds dilution).

[13] = tested on: Staphylococcus pyrogens IID S-23; test: MIC by serial dilution method on agar plate; assay type: cell-based
Text: as §2

[14] = Absorption by oral administration in monkey (plasma concentration, thin layer cup bio-assay); assay type: in vivo; conditions: 10 mg/kg;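 note: plasma concentration in γ/ml (µg/mL) rather than the printed ng/mL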
Procedure: The test compounds were dissolved in 0.1N hydrochloric acid or suspended in 0.5% sodium carboxymethyl cellulose solution. The solution or suspension was administered into stomach of monkey (two monkeys) with cathetel. After the administration of test compounds, the blood was collected from the lower limbs vein at a fixed interval with a syringe treated with heparin. The collected blood was centrifuged at 3,000 r.p.m. for 10 minutes to separate the plasma. The concentration of the test compound was measured by a thin layer cup method (a bio-assay), wherein Bacillus subtilis ATCC 6633 was used as a bacteria for determination. Based on a standard curve, the concentration of test compound in plasma was calculated.

6,8-Difluoro-1-(4-hydroxyphenyl)-7-(1-piperazinyl)-1,4-dihydro-4-oxoquinoline-3-carboxylic acid [Example 2]
minimum inhibitory concentration (MIC) ([1]; 1 × 10^6 cells/ml): 0.781 | minimum inhibitory concentration (MIC) ([1]; 1 × 10^8 cells/ml): 1.56 | minimum inhibitory concentration (MIC) ([2]; 1 × 10^6 cells/ml): < 0.048 | minimum inhibitory concentration (MIC) ([2]; 1 × 10^8 cells/ml): < 0.048 | minimum inhibitory concentration (MIC) ([3]; 1 × 10^6 cells/ml): 0.097 | minimum inhibitory concentration (MIC) ([3]; 1 × 10^8 cells/ml): 0.195 | minimum inhibitory concentration (MIC) ([4]; 1 × 10^6 cells/ml): 0.097 | minimum inhibitory concentration (MIC) ([4]; 1 × 10^8 cells/ml): 0.195 | minimum inhibitory concentration (MIC) ([5]; 1 × 10^6 cells/ml): 0.195 | minimum inhibitory concentration (MIC) ([5]; 1 × 10^8 cells/ml): 0.39 | minimum inhibitory concentration (MIC) ([6]; 1 × 10^6 cells/ml): 0.781 | minimum inhibitory concentration (MIC) ([6]; 1 × 10^8 cells/ml): 1.56 | minimum inhibitory concentration (MIC) ([7]; 1 × 10^6 cells/ml): 0.048 | minimum inhibitory concentration (MIC) ([7]; 1 × 10^8 cells/ml): 0.097 | minimum inhibitory concentration (MIC) ([8]; 1 × 10^6 cells/ml): < 0.048 | minimum inhibitory concentration (MIC) ([8]; 1 × 10^8 cells/ml): < 0.048 | minimum inhibitory concentration (MIC) ([9]; 1 × 10^6 cells/ml): < 0.048 | minimum inhibitory concentration (MIC) ([9]; 1 × 10^8 cells/ml): < 0.048 | minimum inhibitory concentration (MIC) ([10]; 1 × 10^6 cells/ml): 0.195 | minimum inhibitory concentration (MIC) ([10]; 1 × 10^8 cells/ml): 0.39 | minimum inhibitory concentration (MIC) ([11]; 1 × 10^6 cells/ml): 3.12 | minimum inhibitory concentration (MIC) ([11]; 1 × 10^8 cells/ml): 6.25 | minimum inhibitory concentration (MIC) ([12]; 1 × 10^6 cells/ml): 0.195 | minimum inhibitory concentration (MIC) ([12]; 1 × 10^8 cells/ml): 0.39 | minimum inhibitory concentration (MIC) ([13]; 1 × 10^8 cells/ml): 12.5

CN1CCN(c2c(F)cc3c(=O)c(C(=O)O)cn(-c4ccc(O)cc4)c3c2F)CC1 [Test Compd. No. 1, 6,8-Difluoro-1-(4-hydroxyphenyl)-7-(4-methyl-1-piperazinyl)-1,4-dihydro-4-oxoquinoline-3-carboxylic acid]
concentration at 0.5 h ([14]; Run 1, 0.5 hour, read-out: Amount of test compd. in plasma): 2350 ng/mL | concentration at 1 h ([14]; Run 1, 1 hour, read-out: Amount of test compd. in plasma): 4260 ng/mL | concentration at 2 h ([14]; Run 1, 2 hour, read-out: Amount of test compd. in plasma): 1940 ng/mL | concentration at 4 h ([14]; Run 1, 4 hour, read-out: Amount of test compd. in plasma): 720 ng/mL | concentration at 7 h ([14]; Run 1, 7 hour, read-out: Amount of test compd. in plasma): < 200 ng/mL | concentration at 24 h ([14]; Run 1, 24 hour, read-out: Amount of test compd. in plasma): < 200 ng/mL | concentration at 0.5 h ([14]; Run 2, 0.5 hour, read-out: Amount of test compd. in plasma): < 200 ng/mL | concentration at 1 h ([14]; Run 2, 1 hour, read-out: Amount of test compd. in plasma): 2180 ng/mL | concentration at 2 h ([14]; Run 2, 2 hour, read-out: Amount of test compd. in plasma): 1120 ng/mL | concentration at 4 h ([14]; Run 2, 4 hour, read-out: Amount of test compd. in plasma): 1120 ng/mL | concentration at 7 h ([14]; Run 2, 7 hour, read-out: Amount of test compd. in plasma): < 200 ng/mL | concentration at 24 h ([14]; Run 2, 24 hour, read-out: Amount of test compd. in plasma): < 200 ng/mL | concentration at 0.5 h ([14]; average of two runs, 0.5 hour, read-out: Amount of test compd. in plasma, Average): < 1370 ng/mL | concentration at 1 h ([14]; average of two runs, 1 hour, read-out: Amount of test compd. in plasma, Average): 3220 ng/mL | concentration at 2 h ([14]; average of two runs, 2 hour, read-out: Amount of test compd. in plasma, Average): 1530 ng/mL | concentration at 4 h ([14]; average of two runs, 4 hour, read-out: Amount of test compd. in plasma, Average): 920 ng/mL | concentration at 7 h ([14]; average of two runs, 7 hour, read-out: Amount of test compd. in plasma, Average): < 390 ng/mL | concentration at 24 h ([14]; average of two runs, 24 hour, read-out: Amount of test compd. in plasma, Average): < 390 ng/mL | minimum inhibitory concentration (MIC) ([1]; 1 × 10^6 cells/ml): 0.097 | minimum inhibitory concentration (MIC) ([1]; 1 × 10^8 cells/ml): 0.195 | minimum inhibitory concentration (MIC) ([2]; 1 × 10^6 cells/ml): < 0.048 | minimum inhibitory concentration (MIC) ([2]; 1 × 10^8 cells/ml): < 0.048 | minimum inhibitory concentration (MIC) ([3]; 1 × 10^6 cells/ml): < 0.048 | minimum inhibitory concentration (MIC) ([3]; 1 × 10^8 cells/ml): < 0.048 | minimum inhibitory concentration (MIC) ([4]; 1 × 10^6 cells/ml): < 0.048 | minimum inhibitory concentration (MIC) ([4]; 1 × 10^8 cells/ml): < 0.048 | minimum inhibitory concentration (MIC) ([5]; 1 × 10^6 cells/ml): < 0.048 | minimum inhibitory concentration (MIC) ([5]; 1 × 10^8 cells/ml): 0.097 | minimum inhibitory concentration (MIC) ([6]; 1 × 10^6 cells/ml): 0.195 | minimum inhibitory concentration (MIC) ([6]; 1 × 10^8 cells/ml): 0.39 | minimum inhibitory concentration (MIC) ([7]; 1 × 10^6 cells/ml): < 0.048 | minimum inhibitory concentration (MIC) ([7]; 1 × 10^8 cells/ml): 0.097 | minimum inhibitory concentration (MIC) ([8]; 1 × 10^6 cells/ml): < 0.048 | minimum inhibitory concentration (MIC) ([8]; 1 × 10^8 cells/ml): < 0.048 | minimum inhibitory concentration (MIC) ([9]; 1 × 10^6 cells/ml): < 0.048 | minimum inhibitory concentration (MIC) ([9]; 1 × 10^8 cells/ml): < 0.048 | minimum inhibitory concentration (MIC) ([10]; 1 × 10^6 cells/ml): 0.097 | minimum inhibitory concentration (MIC) ([10]; 1 × 10^8 cells/ml): 0.195 | minimum inhibitory concentration (MIC) ([11]; 1 × 10^6 cells/ml): 0.097 | minimum inhibitory concentration (MIC) ([11]; 1 × 10^8 cells/ml): 0.195 | minimum inhibitory concentration (MIC) ([12]; 1 × 10^6 cells/ml): < 0.048 | minimum inhibitory concentration (MIC) ([12]; 1 × 10^8 cells/ml): < 0.048 | minimum inhibitory concentration (MIC) ([13]; 1 × 10^6 cells/ml): 0.39 | minimum inhibitory concentration (MIC) ([13]; 1 × 10^8 cells/ml): 0.781
